Assay results as given in ChEMBL document CHEMBL1201862, “PubChem BioAssay data set” (2004).
Calls of active or inactive are those of the source.

How the values were obtained:
[1] = molecular target: Mitogen-activated protein kinase 10 (Homo sapiens, UniProt P53779); experiment: Dose response biochemical screening assay for inhibitors of c-Jun N-Terminal Kinase 3 (JNK3). [Related pubchem assays: 746 ]
[2] = Trypanosoma cruzi growth suppression in host cells – NIH3T3 host cells, beta-gal luminescence, confirmation (AID 2044); type: functional, cell-based;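 note: intracellular parasites grown in NIH/3T3 mouse fibroblasts as host cells; luminescent beta-galactosidase reporter signal from transgenic T. cruzi replicating inside host cells; inhibitors lower the luminescence signal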
[3] = NIH3T3 cell viability loss – ATP luminescence, mouse fibroblasts, counter-screen, dose response (AID 2010); type: functional, cell-based;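 note: cells exposed to compound for about 90 hours before reading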
[4] = viability loss in HepG2 hepatoma cells – cell-based, ATP luminescence, cherry-pick, activator set 2, cytotoxicity control, dose response (AID 1053143); type: functional
[5] = molecular target: T1, Mannose-6-phosphate isomerase (Homo sapiens, UniProt P34949); experiment: MPI inhibition at elevated mannose 6-phosphate – biochemical, fluorescence intensity, high mannose 6-phosphate, primary screen (AID 1220)
T1 sequence (P34949 whole entry): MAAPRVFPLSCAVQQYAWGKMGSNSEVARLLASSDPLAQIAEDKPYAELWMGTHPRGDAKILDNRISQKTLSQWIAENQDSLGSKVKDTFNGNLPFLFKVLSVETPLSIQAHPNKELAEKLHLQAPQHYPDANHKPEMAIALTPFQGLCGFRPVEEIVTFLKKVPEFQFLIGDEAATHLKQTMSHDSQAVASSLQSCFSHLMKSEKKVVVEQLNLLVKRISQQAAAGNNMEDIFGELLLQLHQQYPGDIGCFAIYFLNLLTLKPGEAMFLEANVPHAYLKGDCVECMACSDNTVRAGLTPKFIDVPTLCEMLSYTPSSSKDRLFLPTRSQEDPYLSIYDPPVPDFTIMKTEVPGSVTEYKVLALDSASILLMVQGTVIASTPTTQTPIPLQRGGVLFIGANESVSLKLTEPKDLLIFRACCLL

[6] = molecular target: T2, Epstein-Barr nuclear antigen 1 (Epstein-Barr virus (strain B95-8) (HHV-4) (Human herpesvirus 4), UniProt P03211); experiment: inhibition of EBV nuclear antigen 1 DNA binding – biochemical, fluorescence polarization, 1536-well, dose response (AID 2381); set-up: species or system human gammaherpesvirus 4;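 note: fluorescence polarization of a Cy5 DNA probe bound by EBNA-1 protein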
T2 sequence (P03211 whole entry): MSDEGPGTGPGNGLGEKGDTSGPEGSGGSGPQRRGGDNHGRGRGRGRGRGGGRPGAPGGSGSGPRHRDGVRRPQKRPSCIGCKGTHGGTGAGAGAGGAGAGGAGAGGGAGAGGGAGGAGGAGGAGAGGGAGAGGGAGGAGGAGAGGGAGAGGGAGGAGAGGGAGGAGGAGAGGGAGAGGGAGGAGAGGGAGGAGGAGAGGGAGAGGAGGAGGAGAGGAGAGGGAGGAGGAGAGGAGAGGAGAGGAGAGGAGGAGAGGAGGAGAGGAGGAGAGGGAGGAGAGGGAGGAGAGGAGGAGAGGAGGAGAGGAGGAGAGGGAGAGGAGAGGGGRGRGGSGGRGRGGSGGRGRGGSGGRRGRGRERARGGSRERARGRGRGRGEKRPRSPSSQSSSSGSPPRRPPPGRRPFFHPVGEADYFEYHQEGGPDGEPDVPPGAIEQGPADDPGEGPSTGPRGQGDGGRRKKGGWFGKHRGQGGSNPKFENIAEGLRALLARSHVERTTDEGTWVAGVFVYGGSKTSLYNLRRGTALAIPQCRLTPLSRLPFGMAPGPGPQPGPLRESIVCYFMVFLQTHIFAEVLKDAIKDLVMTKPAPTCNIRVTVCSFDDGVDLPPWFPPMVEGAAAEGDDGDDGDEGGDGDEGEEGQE

[7] = molecular target: T3, Lytic switch protein BZLF1 (Epstein-Barr virus (strain B95-8) (HHV-4) (Human herpesvirus 4), UniProt P03206); experiment: inhibition of BZLF1 ZTA DNA binding – biochemical, fluorescence polarization, Epstein-Barr virus, 1536-well, counter-screen for EBNA-1 inhibitor project, dose response (AID 2377); set-up: species or system human gammaherpesvirus 4;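 note: fluorescence polarization of Cy5-labelled ZRE DNA probe bound by purified Zta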
T3 sequence (P03206 whole entry): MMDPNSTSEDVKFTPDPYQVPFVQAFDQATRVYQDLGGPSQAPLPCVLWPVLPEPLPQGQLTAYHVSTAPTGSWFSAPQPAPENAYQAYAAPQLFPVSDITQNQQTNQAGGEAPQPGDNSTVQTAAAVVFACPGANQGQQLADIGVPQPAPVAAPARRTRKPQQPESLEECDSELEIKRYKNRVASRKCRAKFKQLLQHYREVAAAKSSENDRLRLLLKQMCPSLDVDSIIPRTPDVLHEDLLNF

[8] = molecular target: Luciferin 4-monooxygenase (Photinus pyralis, UniProt P08659); experiment: Counter Screen for Luciferase-based Assay Positives. [Related pubchem assays: 620, 618, 411 ]
HT-1080 = experiment: HT1080 cell viability loss – fluorescence readout (AID 620); type: functional, cell-based; settings: Homo sapiens
[9] = molecular target: T4, Short transient receptor potential channel 4 (Mus musculus, UniProt Q9QUQ5); experiment: calcium entry via TRPC4 opening agents – cell-based, HEK293 TRPC4/mu-opioid, Fluo-4 calcium, dose response (AID 434937); type: functional
T4 sequence (Q9QUQ5 whole entry): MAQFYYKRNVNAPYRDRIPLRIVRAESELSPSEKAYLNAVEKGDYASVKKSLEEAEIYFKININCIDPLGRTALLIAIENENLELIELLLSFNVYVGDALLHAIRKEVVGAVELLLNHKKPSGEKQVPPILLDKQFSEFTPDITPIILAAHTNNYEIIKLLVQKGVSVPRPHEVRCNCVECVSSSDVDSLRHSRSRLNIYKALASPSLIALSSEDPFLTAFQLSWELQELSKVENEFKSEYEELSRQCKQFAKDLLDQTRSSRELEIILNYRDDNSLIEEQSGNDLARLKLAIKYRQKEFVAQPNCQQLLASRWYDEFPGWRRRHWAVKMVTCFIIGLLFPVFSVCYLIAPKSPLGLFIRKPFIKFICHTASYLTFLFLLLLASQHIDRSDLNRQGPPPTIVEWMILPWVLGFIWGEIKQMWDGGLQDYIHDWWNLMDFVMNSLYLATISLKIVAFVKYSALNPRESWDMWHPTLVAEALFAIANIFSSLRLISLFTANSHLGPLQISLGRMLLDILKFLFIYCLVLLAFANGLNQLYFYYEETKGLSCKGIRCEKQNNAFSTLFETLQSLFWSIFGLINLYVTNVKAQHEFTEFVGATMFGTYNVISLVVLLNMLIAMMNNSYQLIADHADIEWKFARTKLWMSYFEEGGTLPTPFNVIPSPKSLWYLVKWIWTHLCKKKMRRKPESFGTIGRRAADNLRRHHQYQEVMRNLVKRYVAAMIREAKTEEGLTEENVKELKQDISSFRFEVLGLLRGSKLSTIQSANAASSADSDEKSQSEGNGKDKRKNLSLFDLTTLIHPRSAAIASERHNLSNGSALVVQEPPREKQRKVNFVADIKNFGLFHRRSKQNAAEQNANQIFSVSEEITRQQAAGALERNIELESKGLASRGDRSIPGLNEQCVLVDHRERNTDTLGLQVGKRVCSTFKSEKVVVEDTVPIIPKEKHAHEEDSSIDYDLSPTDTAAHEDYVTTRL

[10] = blockers of HIV-1 envelope-mediated cell-cell fusion – cherry-pick, dose response (AID 652057); type: functional, cell-based
[11] = viability loss in CEM21 cells – cell-based, CellTiter-Glo luminescence, cherry-picked, cytotoxicity control for viral fusion inhibitor project, dose response (AID 652042); type: functional;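 note: potency for signal decrease meaning cytotoxicity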
[12] = blockers of HIV-1 ZM109 envelope-driven cell-cell fusion – HeLa effector, CEM target cells, luciferase, cherry-pick, dose response (AID 652058); type: functional, cell-based;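 note: luciferase signal from HIV-1 Env mediated cell-cell fusion of effector and target cells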
[13] = off-target signal loss in HeLa-CEM21 co-culture – HeLa F-luc CTL cells, cherry-picked, counter-screen for HIV-1 Env fusion inhibitor project, dose response (AID 652040); type: functional, cell-based;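 note: potency for signal decrease marking cytotoxic or nonspecific inhibition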
[14] = HIV-1 AD8 envelope cell-cell fusion blockers – cherry-pick, dose response (AID 652062); type: functional, cell-based;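 note: luciferase signal from cell-cell fusion driven by HIV-1 clade B AD8 Env; potency is for inhibitors of fusion seen as a drop in luminescence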
[15] = viability loss in THP-1 monocytes – THP-1 cells, cytotoxicity control for Vif-APOBEC3G degradation inhibitor project, dose response (AID 1117359); type: functional; settings: THP-1

Chain of Mitogen-activated protein kinase 10 (P53779 whole entry): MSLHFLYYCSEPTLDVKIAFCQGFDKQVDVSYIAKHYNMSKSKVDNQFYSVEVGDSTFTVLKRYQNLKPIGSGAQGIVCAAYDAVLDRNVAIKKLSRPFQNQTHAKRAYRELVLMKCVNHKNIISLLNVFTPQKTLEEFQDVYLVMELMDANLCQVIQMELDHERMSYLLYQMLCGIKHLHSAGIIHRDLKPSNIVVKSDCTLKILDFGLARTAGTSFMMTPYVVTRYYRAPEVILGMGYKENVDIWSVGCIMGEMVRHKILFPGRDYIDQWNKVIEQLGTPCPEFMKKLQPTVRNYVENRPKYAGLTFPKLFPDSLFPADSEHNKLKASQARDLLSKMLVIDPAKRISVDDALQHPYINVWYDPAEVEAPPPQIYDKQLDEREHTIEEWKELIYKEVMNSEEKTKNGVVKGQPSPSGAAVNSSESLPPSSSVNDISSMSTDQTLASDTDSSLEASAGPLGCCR
Chain of Luciferin 4-monooxygenase (P08659 whole entry): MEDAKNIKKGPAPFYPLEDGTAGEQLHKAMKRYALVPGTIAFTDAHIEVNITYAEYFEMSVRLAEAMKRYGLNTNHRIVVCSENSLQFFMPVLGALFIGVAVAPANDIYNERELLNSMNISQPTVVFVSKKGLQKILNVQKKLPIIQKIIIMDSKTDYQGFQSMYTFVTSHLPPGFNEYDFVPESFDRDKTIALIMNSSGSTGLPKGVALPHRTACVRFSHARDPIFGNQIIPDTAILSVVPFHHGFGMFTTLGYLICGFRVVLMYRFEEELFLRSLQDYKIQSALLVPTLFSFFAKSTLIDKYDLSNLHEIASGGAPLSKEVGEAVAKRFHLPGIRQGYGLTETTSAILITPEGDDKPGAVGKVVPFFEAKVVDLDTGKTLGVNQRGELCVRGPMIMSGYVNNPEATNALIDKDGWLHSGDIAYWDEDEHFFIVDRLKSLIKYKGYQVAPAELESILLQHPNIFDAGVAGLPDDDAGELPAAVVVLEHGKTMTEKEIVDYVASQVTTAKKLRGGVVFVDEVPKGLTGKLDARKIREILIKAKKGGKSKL

**Q.** For O=C1CCCc2nn(-c3ccccc3)c(-c3ccncc3)c21, which IC50 [1] is on record?
**A.** Its IC50 is 42.3 µM (not active).

**Q.** With CCCn1ncc(CN2CCCC(C(=O)c3cccc(OC)c3)C2)c1C (configuration not stated) as the molecule, how does the EC50 [2] read?
**A.** Its EC50 is < 0.1 µM (active).

**Q.** What about the EC50 [3] of the same molecule?
**A.** The EC50 was 26.4 µM (active).

**Q.** And the EC50 (cells)?
**A.** The EC50 was 0.016 µM (active).

**Q.** With Oc1cc(-c2ccccc2)nc2nc3ccccc3n12 as the molecule, how does the IC50 [1] read?
**A.** Its IC50 is > 31 µM (not active).

**Q.** What about the AC50 [4] of the same molecule?
**A.** Its AC50 is 26 µM (active).

**Q.** For O=[N+]([O-])c1ccc2c(c1NCCO)=NC1(CCCCC1)[N+]=2[O-], which IC50 [5] is on record?
**A.** The IC50 was > 50 µM (not active).

**Q.** Which results are given for Cc1ccc(NC(=O)CSc2nnc(NC(=O)c3ccc(S(=O)(=O)N4CCOCC4)cc3)s2)cc1?
**A.** IC50 [6]: 15.7 µM (not active); IC50 [7]: > 111 µM (not active)

**Q.** With O=C(Nc1ccccc1F)c1cc2c(s1)-c1ccccc1S(=O)(=O)C2 as the molecule, how does the IC50 [6] read?
**A.** The IC50 was 15.9 µM (not active).

**Q.** What about the IC50 [7] of the same molecule?
**A.** Its IC50 is 93.7 µM (not active).

**Q.** Which results are given for Cc1ccc(-n2nc3ccc(N)cc3n2)cc1?
**A.** EC50 [8]: > 100 µM (not active); EC50 (HT-1080): > 50 µM (not active)

**Q.** Which results are given for COc1cc(C)c(CNCCc2c[nH]c3ccccc23)cc1C?
**A.** EC50 [9]: 2.66 µM (active); AC50 [10]: 1.51 µM (active); AC50 [11]: 22.9 µM (active); AC50 [12]: 0.482 µM (active); AC50 [13]: 3.7 µM (active); AC50 [14]: 6.52 µM (active)

**Q.** For C=CCN1C(=O)c2ccc(C(=O)N3CCN(c4ccccc4OC)CC3)cc2C1=O, which CC50 [15] is on record?
**A.** Its CC50 is > 40 µM (active).

**Q.** With COc1cc(-c2nc3n(n2)C(c2cccc(OC)c2OC)C2=C(O)CCCC2=N3)cc(OC)c1OC (configuration not stated) as the molecule, how does the IC50 [6] read?
**A.** The IC50 was 12.9 µM (not active).

**Q.** What about the IC50 [7] of the same molecule?
**A.** Its IC50 is > 111 µM (not active).
